{"source": "patent US8519183B2", "about": "“Uses for amino acid anticonvulsants” (Research Corporation Technologies, Inc., priority 2000, dated 2013)", "key": {"Holtzman male rats": {"tested_on": "Holtzman male rats", "assay": "NMDA Induced Hyperalgesia (thermal escape latency)", "assay_type": "in vivo", "experimental": "Holtzman male rats weighing 275 to 325 grams were prepared with lumbar intrathecal catheters under isoflurane anesthesia. The catheters were externalized on the back of the head. Four to five days after implant, the animals were employed.\nNMDA administration was accomplished using a gear driven microinjection syringe connected to the spinal catheter by a length of calibrated PE-90 tubing. The catheter plug was immediately replaced to avoid back flow and the rat was replaced in its testing box.\nA modified Hargreaves box was used which allows the direction of a focused light beam on the underface of the paw through a glass surface upon which the rat stands. Surface temperature was maintained at 30° C. Withdrawal of the paw was taken as the response. Lack of response within twenty seconds was cause to terminate the test and assign that score.\nThe rats were placed on the thermal escape box and allowed to acclimate for 30 minutes prior to testing. A measurement was taken for each hindpaw to establish an average baseline latency (counted as time=0). (2R)-2-(acetylamino)-N-[(4-fluorophenyl)methyl]-3-methoxypropanamide solution, that is, test product in this experiment, was given at an intrathecal dose of 1 μg/10 μl 10 minutes prior to intrathecal NMDA. A control group was given an identical amount of saline 10 minutes prior to intrathecal NMDA. Measurements were then made at 15, 30, 60, 120, 240 and 360 minutes after intrathecal NMDA injection. General behavior assessments were made during each period of observation and include: tactile allodynia (vocalization/agitation induced by light touch applied to the body surface), spontaneous vocalization, biting and chewing of body surface, loss of hind limb placing and stepping reflex, loss of hind limb weight bearing and loss of righting reflex."}, "Sprague Dawley male rats [1]": {"tested_on": "Sprague Dawley male rats", "assay": "Chung model of neuropathy, tactile threshold (von Frey hairs)", "assay_type": "in vivo", "experimental": "Sprague Dawley male rats weighing 275 to 325 grams was used in this experiment. In this experiment, the response to neuropathic pain was determined. The neuropathic preparation used to induce an allodynic state is the surgical procedure described by Kim and Chung in Pain, 1992, 50, 355-363 (1992) and outlined in Chaplain, et al. in J. Neurosci. Meth., 1994, 53, […]. Briefly, the left L5 and L6 spinal nerves were isolated adjacent to the vertebral column and ligated with 6-0 silk suture distal to the dorsal root ganglion under isoflurane anesthesia. The rats were allowed a minimum 7 day postoperative recovery period before placement in the study.\nTesting groups consisted of 6 rats per group. Each group received test article, (2R)-2-acetyl-amino)-N-[(4-fluorophenyl)methyl]-3-methoxypropanamide (hereinafter “test article”), in one of three concentrations delivered intraperitoneally; the high concentration was 50 mg/kg, the medium concentration was 30 mg/kg and the low concentration was 20 mg/kg. One group of 6 rats received saline control solution at a volume equal to that used for test article.\nTo assess tactile thresholds, rats were placed in a clear plastic, wire mesh-bottomed cage, divided into individual compartments. Animals were allowed to accommodate and then baseline thresholds were taken prior to drug treatment. To determine the 50% mechanical threshold for paw withdrawal, von Frey hairs were applied to the plantar mid-hindpaw, avoiding the tori (footpads). The eight von Frey hairs used are designated by [log(10*force required to bend hair, mg)] and range from 0.4-15.1 grams. Each hair was pressed perpendicularly against the paw with sufficient force to cause slight bending, and held for approximately 6-8 seconds. […] Stimuli were presented successively until either six data points were collected, or the maximum or minimum stimulus was reached. […] If a change in response occurred, either “−” to “+” or “+” to “−”, causing a change in the direction of stimulus presentation from descending to ascending or vice-versa, four additional data points were collected subsequent to the change. The resulting pattern of responses were tabulated and the 50% response threshold computer using the formula: log(threshold, mg×10)=Xf+kh\nwherein: • Xf=value of the last von Frey hair applied; • k=correction factor based on response pattern (from calibration table) • h=mean distance in log units between stimuli.\nBased on observations on normal, —operated rats and sham-operated rats, the cutoff of a 15.1-g hair is selected as the upper limit for testing.\nThe test was performed to establish an average baseline value, counted as time 0; then again at 15, 30, 60, 120 and 240 minutes after the dosing by the control saline solution or the test article."}, "Sprague Dawley male rats [2]": {"tested_on": "Sprague Dawley male rats", "assay": "general behavioral assessment at intraperitoneal doses of 30 to 100 mg/kg", "assay_type": "in vivo", "source_text": "General behavioral assessments were made during each period of observation and include: tactile allodynia (vocalization/agitation induced by light touch applied to the body surface), spontaneous vocalization, biting and chewing of body surface, loss of hind limb placing and stepping reflex, loss of hind limb weight bearing, and loss of righting reflex. All assessments, were noted as “present”, “absent” or ranked according to a graded scale.\nFour rats were examined at intraperitoneal (IP) doses of 30 to 100 mg/kg."}, "NMDA receptor": {"target": "NMDA receptor (Mus musculus, UniProt P35438)", "assay": "NMDA receptor agonism/antagonism after ICVT administration", "conditions": "ICVT 1 μg/mouse, N 3"}, "[3]": {"target": "T1, serotonin 5-HT1A receptor (Rattus norvegicus, UniProt P19327)", "T1 construct": "from tissue; host or cells: living Long Evans derived rat (in vivo)", "T1 sequence (P19327 1-422)": "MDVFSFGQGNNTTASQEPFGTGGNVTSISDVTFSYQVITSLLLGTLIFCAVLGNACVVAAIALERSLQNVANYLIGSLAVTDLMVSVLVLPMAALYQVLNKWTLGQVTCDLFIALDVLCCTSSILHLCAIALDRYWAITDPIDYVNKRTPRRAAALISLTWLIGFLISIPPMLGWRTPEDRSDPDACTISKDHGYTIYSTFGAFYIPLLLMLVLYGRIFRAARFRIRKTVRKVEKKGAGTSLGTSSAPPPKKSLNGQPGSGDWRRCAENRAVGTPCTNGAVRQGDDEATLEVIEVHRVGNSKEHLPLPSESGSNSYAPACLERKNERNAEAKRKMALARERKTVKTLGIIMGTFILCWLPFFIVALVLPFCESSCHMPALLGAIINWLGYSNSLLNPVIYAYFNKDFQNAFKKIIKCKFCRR", "assay": "5-MeODMT-induced head twitch", "assay_type": "in vivo, rats", "conditions": "10 mg/kg PO, 3 rats", "experimental": "Test substance was administered PO (30 mg/kg) to a group of 3 Long Evans derived male or female rats weighing 150±20 gms one hour before injection of 5-MeODMT (5-methoxy-N,N-dimethyltryptamine, 3 mg/kg IP)."}, "male ICR mice": {"tested_on": "male ICR mice", "assay": "radiant heat induced tail flick response", "assay_type": "in vivo", "experimental": "Groups of 4 male ICR mice weighing 22±2 gms were employed. A dose (30 mg/kg) of test compound dissolved in a vehicle of saline was administered intraperitoneally. The control group received vehicle alone. At pretreatment (0 minute) a focused beam of radiant heat was applied to the middle dorsal surface of the tail to elicit a tail flick response within 6-7.5 seconds in pre-treated animals. A maximum cut-off time of 15 seconds was set. The time required to elicit a pain response was recorded for each animal at 0 and 30 minutes following administration of test compound. Prolongation by 50 percent or more (≧50%) of the time required to elicit a tail flick indicated analgesic activity."}, "[4]": {"tested_on": "ICR derived male or female mice", "assay": "Analgesia, Acetic Acid Writhing", "assay_type": "in vivo", "conditions": "100 mg/kg PO", "source_text": "In the first animal study in Example 1, the degree of pain experienced by the mice after injection by acetic acid is seen by the number of writhes. If the mice experience no pain, there is no writhing.\nThe protocol is based on the acetic acid writhing test in mice, developed by R. Koster, et al. Fed. Proc, 18, 412 […], and referred to a Koster test and Hunskarai, S., et al., J. Neuroscience Meth. 14: 69-76, 1985.\nReduction in the number of writhes by 50 percent or more (≧50%) per group of animals observed during the 5 to 10 minute period after acetic acid administration, relative to a vehicle treated control group, indicated analgesic activity."}, "[5]": {"tested_on": "ICR derived male or female mice", "assay": "formalin induced hind paw licking", "assay_type": "in vivo", "conditions": "300 mg/kg PO", "experimental": "The degree of pain is determined by measuring the decrease in the amount of time the animal spends licking the formalin-injected paw after administration of the drug.\nReduction of the induced hind paw licking time recorded during the following 20 to 30 minutes period by 50 percent or more (50%) indicated analgesic activity."}}, "note": "Several values for one entry are separate records, joined by “and”; a condition that tells them apart may be missing. Identical values can stand only once.", "data": [{"compound": "COC[C@@H](NC(C)=O)C(=O)NCc1ccc(F)cc1", "note": "[test article, (2R)-2-(acetylamino)-N-[(4-fluorophenyl)methyl]-3-methoxypropanamide]", "values": [{"measurement": "thermal escape latency, baseline maintained", "setting": "Holtzman male rats; intrathecal 1 μg/10 μl 10 minutes prior to intrathecal NMDA, out to 20 minutes post NMDA injection, n=2", "value": "about 14 second"}, {"measurement": "thermal escape latency after dropping", "setting": "Holtzman male rats; intrathecal 1 μg/10 μl, later than 20 minutes post NMDA injection, n=2", "value": "approximately 10 seconds"}, {"measurement": "anti-hyperalgesic action in NMDA induced thermal hyperalgesia (in words)", "setting": "Holtzman male rats; preliminary data", "value": "measurable anti-hyperalgesic actions"}, {"measurement": "effect on the Chung Model (in words)", "setting": "Sprague Dawley male rats [1]; 15 mg/kg, previous study", "value": "no effect"}, {"measurement": "tactile threshold after dosing (increase from approximately 2)", "setting": "Sprague Dawley male rats [1]; 20 mg (per kg) IP, 6 rats", "value": "~5", "unit": "grams"}, {"measurement": "rats appearing sedated", "setting": "Sprague Dawley male rats [1]; 30 mg IP, for approximately 1 hour", "value": "Four of 6"}, {"measurement": "tactile threshold after dosing (increase from approximately 2)", "setting": "Sprague Dawley male rats [1]; 30 mg/kg IP, 6 rats", "value": "~5", "unit": "grams"}, {"measurement": "tactile threshold after dosing (increase from 2)", "setting": "Sprague Dawley male rats [1]; 50 mg/kg IP, 6 rats", "value": 11, "unit": "grams"}, {"measurement": "rats appearing sedated", "setting": "Sprague Dawley male rats [1]; 50 mg/kg IP, for approximately 1 hour post injection", "value": "6 of 6"}, {"measurement": "duration of effect after injection", "setting": "Sprague Dawley male rats [1]; IP, Chung Model", "value": "approximately 2 hours"}, {"measurement": "reversal of tactile allodynia (in words)", "setting": "Sprague Dawley male rats [1]; delivered intraperitoneally", "value": "significant reversal of tactile allodynia"}, {"measurement": "behavioral observation", "setting": "Sprague Dawley male rats [2]; 30 mg/kg IP, one rat", "value": "no behavioral deficit"}, {"measurement": "behavioral observation", "setting": "Sprague Dawley male rats [2]; 50 mg/kg IP, one rat, lasted 60 minutes", "value": "slightly catatonic"}, {"measurement": "behavioral observation", "setting": "Sprague Dawley male rats [2]; 60 mg/kg IP, one rat, within 15 minutes, severe exopthalmos, euthanized", "value": "catatonic and displayed abnormal ambulation"}, {"measurement": "behavioral observation", "setting": "Sprague Dawley male rats [2]; 90 mg/kg IP, one rat, within 15 minutes, flaccid, severe exopthalmos, euthanized", "value": "catatonic and unable to right itself"}, {"measurement": "behavioral observation", "setting": "Sprague Dawley male rats [2]; 100 mg/kg IP, one rat, within 15 minutes, euthanized", "value": "laterally recumbent displaying seizures and bleeding from the nose"}, {"measurement": "behavioral observation", "setting": "Sprague Dawley male rats [2]; Fifteen mg/kg, previously shown", "value": "no observable affect"}]}, {"compound": "CN[C@H](CC(=O)O)C(=O)O", "note": "[NMDA, N-methyl-D-aspartate, reference compound]", "values": [{"measurement": "Agonism (mice with convulsions/mortality within 5 minutes)", "setting": "NMDA receptor", "value": 3}]}, {"compound": "CN1C(=O)CN=C(c2ccccc2)c2cc(Cl)ccc21", "note": "[Diazepam, reference compound]", "values": [{"measurement": "Head Twitch, Ave.", "setting": "[3]", "value": 2}]}, {"compound": "CN1CC[C@]23c4c5ccc(O)c4O[C@H]2[C@@H](O)C=C[C@H]3[C@H]1C5", "note": "[Morphine, reference compound]", "values": [{"measurement": "% Inh.", "setting": "male ICR mice; 10 mg/kg IP", "value": 100, "unit": "%"}, {"measurement": "Response Time 30 Min. (individual animal)", "setting": "male ICR mice; 10 mg/kg IP, 30 minutes after administration, cut-off 15 seconds", "value": ">15"}, {"measurement": "Response Time 30 Min., X", "setting": "male ICR mice; 10 mg/kg IP, mean of 4 mice", "value": 15.0}, {"measurement": "Response Time 0 Min., X", "setting": "male ICR mice; 10 mg/kg IP, mean of 4 mice, pretreatment", "value": 6.9}, {"measurement": "Response Time 0 Min. (individual animal)", "setting": "male ICR mice; 10 mg/kg IP, pretreatment (0 minute)", "value": "7.4 (2×) and 6.5 and 6.4"}, {"measurement": "radiant heat induced tail flick response (in words)", "setting": "male ICR mice; morphine control", "value": "positive response"}]}, {"compound": "CC(=O)Oc1ccccc1C(=O)O", "note": "[Aspirin, reference compound]", "values": [{"measurement": "No. of Writhes, X ± SEM", "setting": "[4]; group of 3 mice", "value": "X ± SEM 0 ± 0"}, {"measurement": "No. of Writhes (individual animal)", "setting": "[4]; one hour before acetic acid, 5 to 10 minute period", "value": 0}, {"measurement": "% Inh.", "setting": "[4]; relative to vehicle control", "value": 100, "unit": "%"}, {"measurement": "% Inh.", "setting": "[5]", "value": 72, "unit": "%"}, {"measurement": "Licking Time, Ave.", "setting": "[5]; 5 mice", "value": 36, "unit": "s"}]}]}
